Experimental data from PubChem BioAssay (NCI).
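Protocol summary: plate cells (96-well), add compound at 5 concentrations, incubate 48 h, interpolate endpoints linearly. TGI: total growth inhibition.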

Legend:
Assay in all cases: NCI anticancer screen, dose series, 48 h
786-0 renal = test system: 786-0 renal
A498 renal = test system: A498 renal
A549 NSCLC = test system: A549 NSCLC
ACHN renal = test system: ACHN renal
BT-549 breast = test system: BT-549 breast
CAKI-1 renal = test system: CAKI-1 renal
CCRF-CEM leukemia = test system: CCRF-CEM leukemia
COLO 205 colon = test system: COLO 205 colon
DU-145 prostate = test system: DU-145 prostate
EKVX NSCLC = test system: EKVX NSCLC
HCC-2998 colon = test system: HCC-2998 colon
HCT-116 colon = test system: HCT-116 colon
HCT-15 colon = test system: HCT-15 colon
HL-60(TB) leukemia = test system: HL-60(TB) leukemia
HOP-62 NSCLC = test system: HOP-62 NSCLC
HS 578T breast = test system: HS 578T breast
HT29 colon = test system: HT29 colon
IGROV1 ovarian = test system: IGROV1 ovarian
K-562 leukemia = test system: K-562 leukemia
KM12 colon = test system: KM12 colon
LOX IMVI melanoma = test system: LOX IMVI melanoma
M14 melanoma = test system: M14 melanoma
MALME-3M melanoma = test system: MALME-3M melanoma
MCF7 breast = test system: MCF7 breast
MDA-MB-231 breast = test system: MDA-MB-231 breast
MDA-MB-435 = test system: MDA-MB-435
MDA-N = test system: MDA-N
MOLT-4 leukemia = test system: MOLT-4 leukemia
NCI-H226 lung = test system: NCI-H226 lung
NCI-H23 lung = test system: NCI-H23 lung
NCI-H460 lung = test system: NCI-H460 lung
NCI-H522 lung = test system: NCI-H522 lung
NCI/ADR-RES ovarian = test system: NCI/ADR-RES ovarian
OVCAR-3 ovarian = test system: OVCAR-3 ovarian
OVCAR-4 ovarian = test system: OVCAR-4 ovarian
OVCAR-5 ovarian = test system: OVCAR-5 ovarian
OVCAR-8 ovarian = test system: OVCAR-8 ovarian
PC-3 prostate = test system: PC-3 prostate
RPMI-8226 leukemia = test system: RPMI-8226 leukemia
RXF 393 renal = test system: RXF 393 renal
SF-268 CNS = test system: SF-268 CNS
SF-295 CNS = test system: SF-295 CNS
SK-MEL-2 melanoma = test system: SK-MEL-2 melanoma
SK-MEL-28 melanoma = test system: SK-MEL-28 melanoma
SK-MEL-5 melanoma = test system: SK-MEL-5 melanoma
SK-OV-3 ovarian = test system: SK-OV-3 ovarian
SN12C renal = test system: SN12C renal
SNB-19 CNS = test system: SNB-19 CNS
SNB-75 CNS = test system: SNB-75 CNS
SR leukemia = test system: SR leukemia
SW-620 colon = test system: SW-620 colon
T-47D breast = test system: T-47D breast
U251 CNS = test system: U251 CNS
UACC-62 melanoma = test system: UACC-62 melanoma
UO-31 renal = test system: UO-31 renal
HOP-92 NSCLC = test system: HOP-92 NSCLC
SF-539 CNS = test system: SF-539 CNS
TK-10 renal = test system: TK-10 renal
UACC-257 melanoma = test system: UACC-257 melanoma

Nc1ccc(I)cn1
TGI (786-0 renal): > 100 µM | TGI (A498 renal): > 100 µM | TGI (A549 NSCLC): > 100 µM | TGI (ACHN renal): > 100 µM | TGI (BT-549 breast): > 100 µM | TGI (CAKI-1 renal): > 100 µM | TGI (CCRF-CEM leukemia): > 100 µM | TGI (COLO 205 colon): > 100 µM | TGI (DU-145 prostate): > 100 µM | TGI (EKVX NSCLC): > 100 µM | TGI (HCC-2998 colon): > 100 µM | TGI (HCT-116 colon): > 100 µM | TGI (HCT-15 colon): > 100 µM | TGI (HL-60(TB) leukemia): > 100 µM | TGI (HOP-62 NSCLC): > 100 µM | TGI (HS 578T breast): > 100 µM | TGI (HT29 colon): > 100 µM | TGI (IGROV1 ovarian): > 100 µM | TGI (K-562 leukemia): > 100 µM | TGI (KM12 colon): > 100 µM | TGI (LOX IMVI melanoma): > 100 µM | TGI (M14 melanoma): > 100 µM | TGI (MALME-3M melanoma): > 100 µM | TGI (MCF7 breast): > 100 µM | TGI (MDA-MB-231 breast): > 100 µM | TGI (MDA-MB-435): > 100 µM | TGI (MDA-N): > 100 µM | TGI (MOLT-4 leukemia): > 100 µM | TGI (NCI-H226 lung): > 100 µM | TGI (NCI-H23 lung): > 100 µM | TGI (NCI-H460 lung): > 100 µM | TGI (NCI-H522 lung): > 100 µM | TGI (NCI/ADR-RES ovarian): > 100 µM | TGI (OVCAR-3 ovarian): > 100 µM | TGI (OVCAR-4 ovarian): > 100 µM | TGI (OVCAR-5 ovarian): > 100 µM | TGI (OVCAR-8 ovarian): > 100 µM | TGI (PC-3 prostate): > 100 µM | TGI (RPMI-8226 leukemia): > 100 µM | TGI (RXF 393 renal): > 100 µM | TGI (SF-268 CNS): > 100 µM | TGI (SF-295 CNS): > 100 µM | TGI (SK-MEL-2 melanoma): > 100 µM | TGI (SK-MEL-28 melanoma): > 100 µM | TGI (SK-MEL-5 melanoma): > 100 µM | TGI (SK-OV-3 ovarian): > 100 µM | TGI (SN12C renal): > 100 µM | TGI (SNB-19 CNS): > 100 µM | TGI (SNB-75 CNS): > 100 µM | TGI (SR leukemia): > 100 µM | TGI (SW-620 colon): > 100 µM | TGI (T-47D breast): > 100 µM | TGI (U251 CNS): > 100 µM | TGI (UACC-62 melanoma): > 100 µM | TGI (UO-31 renal): > 100 µM

CCOC(=O)c1ccc(NC(=O)O/N=C(/Cl)CC)cc1
TGI (786-0 renal): 13 µM | TGI (A498 renal): 32.4 µM | TGI (A549 NSCLC): > 60.8 µM | TGI (ACHN renal): 22.9 µM | TGI (BT-549 breast): 59.5 µM | TGI (CAKI-1 renal): 8.72 µM | TGI (CCRF-CEM leukemia): 4.54 µM | TGI (COLO 205 colon): 5.5 µM | TGI (DU-145 prostate): 33.5 µM | TGI (EKVX NSCLC): 32.2 µM | TGI (HCC-2998 colon): 32.6 µM | TGI (HCT-116 colon): 26.1 µM | TGI (HCT-15 colon): 28.9 µM | TGI (HL-60(TB) leukemia): 6.47 µM | TGI (HOP-62 NSCLC): 38.1 µM | TGI (HOP-92 NSCLC): 6.77 µM | TGI (HS 578T breast): 67.5 µM | TGI (HT29 colon): 44.5 µM | TGI (IGROV1 ovarian): 41.3 µM | TGI (K-562 leukemia): 3.6 µM | TGI (KM12 colon): 36.1 µM | TGI (M14 melanoma): 25.6 µM | TGI (MALME-3M melanoma): 9.14 µM | TGI (MCF7 breast): 30.9 µM | TGI (MDA-MB-231 breast): 42.5 µM | TGI (MDA-MB-435): 34.6 µM | TGI (MDA-N): 32.6 µM | TGI (MOLT-4 leukemia): 4.51 µM | TGI (NCI-H226 lung): 40 µM | TGI (NCI-H23 lung): 39.9 µM | TGI (NCI-H460 lung): 40.9 µM | TGI (NCI-H522 lung): 6.81 µM | TGI (NCI/ADR-RES ovarian): 22 µM | TGI (OVCAR-3 ovarian): 3.5 µM | TGI (OVCAR-4 ovarian): 10.1 µM | TGI (OVCAR-5 ovarian): 34.3 µM | TGI (OVCAR-8 ovarian): 30.4 µM | TGI (PC-3 prostate): 33.3 µM | TGI (RXF 393 renal): 31.1 µM | TGI (SF-268 CNS): 48 µM | TGI (SF-295 CNS): 36.4 µM | TGI (SF-539 CNS): 33.6 µM | TGI (SK-MEL-2 melanoma): 31.9 µM | TGI (SK-MEL-28 melanoma): 30.6 µM | TGI (SK-MEL-5 melanoma): 29.5 µM | TGI (SK-OV-3 ovarian): 31.7 µM | TGI (SN12C renal): 39.3 µM | TGI (SNB-19 CNS): 45.5 µM | TGI (SNB-75 CNS): 28.2 µM | TGI (SR leukemia): 11.6 µM | TGI (SW-620 colon): 3.36 µM | TGI (T-47D breast): 19.8 µM | TGI (TK-10 renal): > 34.4 µM | TGI (U251 CNS): 34.3 µM | TGI (UACC-257 melanoma): 29.8 µM | TGI (UACC-62 melanoma): 45.4 µM | TGI (UO-31 renal): 31.4 µM

CC1=NN(C(=O)CC(=O)Nc2ccccc2)C(=O)C1N=Nc1ccc(C(=O)O)cc1 (centres undefined)
TGI (786-0 renal): > 100 µM | TGI (A498 renal): > 100 µM | TGI (A549 NSCLC): > 100 µM | TGI (ACHN renal): > 100 µM | TGI (BT-549 breast): > 100 µM | TGI (CAKI-1 renal): > 100 µM | TGI (CCRF-CEM leukemia): > 100 µM | TGI (COLO 205 colon): > 100 µM | TGI (DU-145 prostate): > 100 µM | TGI (EKVX NSCLC): > 100 µM | TGI (HCC-2998 colon): > 100 µM | TGI (HCT-116 colon): > 100 µM | TGI (HCT-15 colon): > 100 µM | TGI (HL-60(TB) leukemia): > 100 µM | TGI (HOP-62 NSCLC): > 100 µM | TGI (HOP-92 NSCLC): 87.1 µM | TGI (HS 578T breast): > 100 µM | TGI (HT29 colon): > 100 µM | TGI (IGROV1 ovarian): > 100 µM | TGI (K-562 leukemia): > 100 µM | TGI (KM12 colon): > 100 µM | TGI (LOX IMVI melanoma): > 100 µM | TGI (M14 melanoma): > 100 µM | TGI (MALME-3M melanoma): > 100 µM | TGI (MCF7 breast): > 100 µM | TGI (MDA-MB-231 breast): > 100 µM | TGI (MDA-MB-435): > 100 µM | TGI (MDA-N): > 100 µM | TGI (MOLT-4 leukemia): > 100 µM | TGI (NCI-H23 lung): > 100 µM | TGI (NCI-H460 lung): > 100 µM | TGI (NCI-H522 lung): > 100 µM | TGI (NCI/ADR-RES ovarian): > 100 µM | TGI (OVCAR-3 ovarian): > 100 µM | TGI (OVCAR-4 ovarian): > 100 µM | TGI (OVCAR-5 ovarian): > 100 µM | TGI (OVCAR-8 ovarian): > 100 µM | TGI (PC-3 prostate): > 100 µM | TGI (RPMI-8226 leukemia): > 100 µM | TGI (RXF 393 renal): > 100 µM | TGI (SF-268 CNS): > 100 µM | TGI (SF-295 CNS): > 100 µM | TGI (SF-539 CNS): > 100 µM | TGI (SK-MEL-2 melanoma): > 100 µM | TGI (SK-MEL-28 melanoma): > 100 µM | TGI (SK-MEL-5 melanoma): > 100 µM | TGI (SN12C renal): > 100 µM | TGI (SNB-19 CNS): > 100 µM | TGI (SNB-75 CNS): > 100 µM | TGI (SR leukemia): > 100 µM | TGI (SW-620 colon): > 100 µM | TGI (T-47D breast): > 100 µM | TGI (TK-10 renal): > 100 µM | TGI (U251 CNS): > 100 µM | TGI (UACC-257 melanoma): > 100 µM | TGI (UACC-62 melanoma): > 100 µM | TGI (UO-31 renal): > 100 µM
